Read-outs that look alike come from different tables or passages of the source.
Tests used:
[1] = tested on: TNF release; test: TNF assay: TNF release from LPS-stimulated human PBMCs (TNF ELISA); assay type: cell-based; details: human PBMCs, compounds 2 hours before LPS (10 ng/ml) for 18 hours, supernatant TNF ELISA, read-out: IC50 (TNF assay)
Summary of the method: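 Human PBMCs at 10k/well pretreated with compound dilutions 2 h, then stimulated with LPS (10 ng/mL) for 18 h. TNF in supernatants quantified by ELISA; IC50 for inhibition of TNF release fitted from concentration–response.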

[2] = tested on: NF-κB; test: NF-κB assay: THP1-NF-κB-LUC cells, LPS-stimulated secreted luciferase; assay type: cell-based; details: THP1-NF-κB-LUC cells; compounds 2 hours before LPS (10 ng/mL) for 18 hours; secreted luciferase; read-out: IC50 (NF-κB assay)
Summary of the method: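 THP1-NF-κB-LUC cells (25k/well) were pretreated with compounds for 2 h, then stimulated with LPS (10 ng/mL) for 18 h. Secreted luciferase was measured and normalized to vehicle, and IC50 was fitted from the concentration series.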

Compound | IC50 ([1]; PBMC) [nM] | IC50 [2] [nM] | IC50 [1] [nM]
CCc1cccc(NS(=O)(=O)c2cc3c(cc2Br)NC(=O)C(CC(C)C)O3)c1 (stereo not shown) [BC19772] | > 10000 | 100 to 1000 | –
CC(C)CC1Oc2cc(S(=O)(=O)Nc3cccc(F)c3)c(Br)cc2NC1=O (stereo not shown) [BC19774] | > 10000 | 100 to 1000 | –
CC(C)CC1Oc2cc(S(=O)(=O)Nc3cccc(Cl)c3)c(Br)cc2NC1=O (stereo not shown) [BC19776] | > 10000 | 100 to 1000 | –
CC(C)CC1Oc2cc(S(=O)(=O)Nc3ccc(F)cc3Cl)c(Br)cc2NC1=O (stereo not shown) [BC19778] | > 10000 | > 10000 | –
COc1ccc(NS(=O)(=O)c2cc(Br)cc3c2OC(CC(C)C)C(=O)N3)cc1Cl (stereo not shown) [BC19779] | 1000 to 10000 | 100 to 1000 | –
COc1ccc(NS(=O)(=O)c2cc3c(cc2Br)NC(=O)C(CC(C)C)O3)cc1Cl (stereo not shown) [BC19780] | > 10000 | 1000 to 10000 | –
CC(C)CC1Oc2cc(S(=O)(=O)Nc3ccc(F)cc3)c(Br)cc2NC1=O (stereo not shown) [BC19782] | > 10000 | 1000 to 10000 | –
CC1Oc2cc(S(=O)(=O)Nc3ccc(OC(F)(F)F)cc3)c(Br)cc2N(C)C1=O (stereo not shown) [BC19784] | > 10000 | 1000 to 10000 | –
CC1Oc2cc(S(=O)(=O)Nc3ccc(F)c(F)c3)c(Br)cc2N(C)C1=O (stereo not shown) [BC19786] | > 10000 | 1000 to 10000 | –
CC1Oc2cc(S(=O)(=O)Nc3ccccc3)c(Br)cc2N(C)C1=O (stereo not shown) [BC19790] | > 10000 | 1000 to 10000 | –
CC1Oc2cc(S(=O)(=O)Nc3ccc(Cl)cc3)c(Br)cc2N(C)C1=O (stereo not shown) [BC19792] | > 10000 | 1000 to 10000 | –
CC1Oc2cc(S(=O)(=O)Nc3ccc(C(C)C)cc3)c(Br)cc2N(C)C1=O (stereo not shown) [BC19794] | > 10000 | 1000 to 10000 | –
COc1ccc(NS(=O)(=O)c2cc3c(cc2Br)N(C)C(=O)C(C)O3)cc1 (stereo not shown) [BC19795] | 1000 to 10000 | > 10000 | –
Cc1ccc(NS(=O)(=O)c2cc3c(cc2Br)N(C)C(=O)C(C)O3)cc1Cl (stereo not shown) [BC19797] | 1000 to 10000 | 1000 to 10000 | –
CC1Oc2c(cc(Br)cc2S(=O)(=O)Nc2ccc(F)cc2F)N(C)C1=O (stereo not shown) [BC19798] | 1000 to 10000 | < 100 | –
CC1Oc2cc(S(=O)(=O)Nc3ccc(F)cc3F)c(Br)cc2N(C)C1=O (stereo not shown) [BC19799] | 1000 to 10000 | 100 to 1000 | –
CCc1cccc(NS(=O)(=O)c2cc(Br)cc3c2OC(C)C(=O)N3C)c1 (stereo not shown) [BC19900] | > 10000 | 100 to 1000 | –
CCc1cccc(NS(=O)(=O)c2cc3c(cc2Br)N(C)C(=O)C(C)O3)c1 (stereo not shown) [BC19901] | > 10000 | 1000 to 10000 | –
CC1Oc2c(cc(Br)cc2S(=O)(=O)Nc2cccc(F)c2)N(C)C1=O (stereo not shown) [BC19902] | > 10000 | < 100 | –
CC1Oc2cc(S(=O)(=O)Nc3cccc(F)c3)c(Br)cc2N(C)C1=O (stereo not shown) [BC19903] | > 10000 | 100 to 1000 | –
CC1Oc2c(cc(Br)cc2S(=O)(=O)Nc2cccc(Cl)c2)N(C)C1=O (stereo not shown) [BC19904] | > 10000 | < 100 | –
CC1Oc2cc(S(=O)(=O)Nc3cccc(Cl)c3)c(Br)cc2N(C)C1=O (stereo not shown) [BC19905] | > 10000 | 1000 to 10000 | –

The next lines start with the values.

IC50 ([1]; PBMC) [nM] | IC50 [2] [nM] | IC50 [1] [nM] | Compound
> 10000 | < 100 | – | CCc1cccc(NS(=O)(=O)c2cc(Br)cc3c2OC(CC(C)C)C(=O)N3)c1 (stereo not shown) [BC19771]
> 10000 | < 100 | – | CC(C)CC1Oc2c(cc(Br)cc2S(=O)(=O)Nc2cccc(F)c2)NC1=O (stereo not shown) [BC19773]
> 10000 | < 100 | – | CC(C)CC1Oc2c(cc(Br)cc2S(=O)(=O)Nc2cccc(Cl)c2)NC1=O (stereo not shown) [BC19775]
> 10000 | < 100 | – | CC(C)CC1Oc2c(cc(Br)cc2S(=O)(=O)Nc2ccc(F)cc2Cl)NC1=O (stereo not shown) [BC19777]
1000 to 10000 | < 100 | – | CC(C)CC1Oc2c(cc(Br)cc2S(=O)(=O)Nc2ccc(F)cc2)NC1=O (stereo not shown) [BC19781]
> 10000 | < 100 | – | CC1Oc2c(cc(Br)cc2S(=O)(=O)Nc2ccc(OC(F)(F)F)cc2)N(C)C1=O (stereo not shown) [BC19783]
> 10000 | < 100 | – | Cc1ccc(NS(=O)(=O)c2cc(Br)cc3c2OC(C)C(=O)N3C)cc1F (stereo not shown) [BC19785]
> 10000 | < 100 | – | CC1Oc2c(cc(Br)cc2S(=O)(=O)Nc2ccc(F)c(F)c2)N(C)C1=O (stereo not shown) [BC19787]
– | < 100 | > 10000 | CC1Oc2cc(S(=O)(=O)Nc3ccc(F)c(F)c3)c(Br)cc2N(C)C1=O (stereo not shown) [BC19788]
1000 to 10000 | < 100 | – | CC1Oc2c(cc(Br)cc2S(=O)(=O)Nc2ccccc2)N(C)C1=O (stereo not shown) [BC19789]
> 10000 | < 100 | – | CC1Oc2c(cc(Br)cc2S(=O)(=O)Nc2ccc(Cl)cc2)N(C)C1=O (stereo not shown) [BC19791]
> 10000 | < 100 | – | CC1Oc2c(cc(Br)cc2S(=O)(=O)Nc2ccc(C(C)C)cc2)N(C)C1=O (stereo not shown) [BC19793]
1000 to 10000 | < 100 | – | Cc1ccc(NS(=O)(=O)c2cc(Br)cc3c2OC(C)C(=O)N3C)cc1Cl (stereo not shown) [BC19796]
